Measurements as given in PMC5751249, “Anti-Diabetic Effect of Organo-Chalcogen (Sulfur and Selenium) Zinc Complexes with Hydroxy-Pyrone Derivatives on Leptin-Deficient Type 2 Diabetes Model ob/ob Mice” (International Journal of Molecular Sciences, 2017).

Tests used:
[1] = tested on: type 2 diabetic ob/ob mice; test: Oral glucose tolerance test (OGTT) after 28 days treatment; format: in vivo
Procedure: After treatment with [Zn(hmpt)2] or [Zn(hmps)2] for 28 days, OGTTs were performed. The ob/ob mice and +/+ mice were fasted for 12-h and glucose (1 g/kg body weight) was given orally. Blood samples were obtained from the tail vein at 0, 15, 30, 45, 60, 90, and 120 min after glucose administration. Blood glucose concentrations were measured using a Glucocard.

[2] = tested on: Isolated male Wistar rat epididymal adipocytes; test: Glucose uptake into adipocytes (in vitro insulin-mimetic activity); format: cell-based; details: 20 μM Zn complex, means ± SDs, three runs
Procedure: The in vitro insulin-mimetic activities of Zn complexes were determined by the inhibition of FFA release from adipocytes and increase of glucose uptake into adipocytes. Isolated male Wistar rat epididymal adipocytes (1.0 × 10^6 cells/mL) were prepared and pre-incubated separately with various concentrations of the different Zn complexes in 5 mM glucose in Krebs-Ringer bicarbonate buffer (120 mM NaCl, 1.3 mM CaCl2, 1.2 mM MgSO4, 4.8 mM KCl, 1.2 mM KH2PO4, 24 mM NaHCO3, pH 7.4) containing 2% BSA, with shaking at 100 cycles/min for 30 min at 37 °C. Adrenaline (15 μL, 0.2 mM) was then added to the mixtures, and the resultant solutions were then incubated for 3 h at 37 °C. The reaction mixture was subsequently centrifuged at 650× g for 10 min at 4 °C. FFA levels in the extracellular solutions were determined using an FFA measuring kit (NEFA C-test Wako) and the IC50 value, which is the 50% inhibitory concentration of FFA-release in each complex, was calculated. Glucose concentrations in the solutions with 20 μM Zn complexes were determined using a Fuji Dry Chem system (Fuji Medical Co., Tokyo, Japan) and then the glucose uptake quantities/(1.0 × 10^6 cells) in the 20 μM Zn complexes were calculated.

[3] = tested on: type 2 diabetic ob/ob mice; format: in vivo
Procedure: (§1) After OGTT, HbA1c levels were measured in blood obtained from the mouse tail vein using an immunoassay with a DCA 2000 analyzer (Bayer-Sankyo Co., Ltd., Tokyo, Japan). The mice were subjected to a 12-h fast and blood samples were collected from the orbital vein or postcaval vein under isoflurane anesthesia using heparinized tools. Collected samples were then centrifuged at 650× g for 10 min at 4 °C, and the resultant plasma samples were used to analyze various biochemical parameters. The levels of AST, ALT, BUN, TG, T-CHO, and ALP in plasma samples were determined using a Fuji Dry Chem system. The plasma levels of insulin and adiponectin were determined using an ultra-sensitive Mouse Insulin ELISA Kit (Morinaga Institute of Biological Science, Inc., Kanagawa, Japan) and an adiponectin immunoassay kit (R&D Systems Inc., Minneapolis, MN, USA), respectively. After collecting the blood samples, mice were subjected to dissection under isoflurane anesthesia, and the resultant tissue samples were washed in saline. Each of the samples was dehydrated for a week in desiccators, weighed, and then heated in 5% HNO3 (5 mL) for 5 h at 110 °C in a closed system. The resultant solution was centrifuged at 1250× g for 15 min, and the supernatant was diluted using 5% HNO3. Both Zn and Se concentrations in organs were determined with an ICP-MS Agilent 7700x/Mass Hunter instrument (Agilent Technologies Inc., Santa Clara, CA, USA). The Zn and Se concentrations in each sample were calculated using linear regression of the standard curves prepared from standard solutions of the respective trace elements.

[4] = tested on: type 2 diabetic ob/ob mice; test: Daily oral treatment of ob/ob mice for 28 days: blood glucose, body weight, water intake; format: in vivo
Procedure: The anti-diabetic effects of both [Zn(hmpt)2] and [Zn(hmps)2] were examined in ob/ob mice. The ob/ob and +/+ mice were used as type 2 diabetic and normal (non-diabetic) mice, respectively. The ob/ob (10-week-old) and +/+ (10-week-old) mice received daily oral treatment of either Zn complexes dissolved in PEG-400 or PEG-400 only, respectively. The mice received oral treatments of [Zn(hmpt)2] or [Zn(hmps)2] at doses of 2.5–10 mg Zn/kg or 1.0–5.0 mg Zn/kg for 28 days, respectively. Blood glucose levels (BGL) were measured using a Glucocard (Arkray, Kyoto, Japan) just before treatment with the Zn complexes, and the doses were regulated based on the BGL. Over 28 days, BGL, body weight, food intake, and water intake were measured every day. The number of normal mice (+/+ mice), control mice (ob/ob mice), [Zn(hmpt)2]-treated, and [Zn(hmps)2]-treated mice was 6, 8, 8, and 8 in the initial animal experiments, respectively. This was modified to 6, 6, 7, and 8 after the end of experiments as two control mice died naturally by the end of experiments, and one [Zn(hmpt)2]-treated mouse died from an accident during the oral glucose tolerance test.

[5] = tested on: type 2 diabetic ob/ob mice; test: Triglyceride and glycogen contents in the liver; format: in vivo; details: ob/ob mice after 28 days oral treatment
Procedure: Lipids in the liver were extracted according to modified Folch method. TG in the extracted lipids was detected using the triglyceride E test wako (Wako Pure Chemicals Co., Osaka, Japan). Glycogen in the liver was extracted with a strong base (30% KOH aq). Then, ethanol precipitation methods (using 95% ethanol and saturated Na2SO4), hydrolysis, and neutralization (with 2.4 M HCl aq and 0.8 M NaOH aq) of the glycogen extracts were performed, resulting in degradation to glucose solution. To detect the glucose levels in the solution using the glucose CII test wako (Wako Pure Chemicals Co., Osaka, Japan), glycogen levels in the liver were estimated. Because the liver sample of normal mice was used up during TG detection and ICP-MS analysis, glycogen content in the liver could not be detected.

[6] = Organ distribution of Zn and Se by ICP-MS after 28 days oral treatment; format: in vivo, mice
Procedure: as §1

[7] = tested on: type 2 diabetic ob/ob mice; test: Histopathology and morphometric analysis of pancreas and liver (HE staining); format: in vivo; details: 14-week-old mice
Procedure: Excised pancreas and liver from 14-week-old mice were immediately fixed in 10% buffered formalin for a week, sectioned at a thickness of 3 μm, and stained with HE for histopathological examination. HE-stained tissue sections were scanned using a Moticam T2 (Shimadzu Co., Kyoto, Japan) to prepare digital images. Both pancreatic islet area and glycogen and fat deposition areas were calculated with the dedicated image processing software WinROOF (Mitani Corp., Tokyo, Japan).

male Wistar rats = tested on: male Wistar rats; set-up: method as in earlier work; details: in food 10 µg sodium selenite/kg/day (4.6 µg Se/kg/day), 3 months; cited from earlier work

Structure (SMILES): Cc1occc(=S)c1[O-].Cc1occc(=S)c1[O-].[Zn+2] [[Zn(hmpt)2], bis(3-hydroxy-2-methyl-4(H)-pyran-4-thiono)Zn]
- Area under the blood glucose concentration-time curve (AUC) in OGTT ([1]; 1 g glucose/kg oral, after 28 days treatment, compared with control mice): significantly decreased
- Fasting blood glucose level (0 min of OGTT) ([1]; ob/ob mice after 28 days oral treatment, 12-h fast, control 237 ± 52 mg/dL): 143 ± 75 mg/dL
- Glucose Uptake [2]: 79 ± 26 µg/10^6 Cells
- ALP (plasma) ([3]; mouse, in vivo, po): 360 ± 88 U/L
- ALT (plasma) ([3]; mouse, in vivo, po): 118 ± 68 U/L
- AST (plasma) ([3]; mouse, in vivo, po): 103 ± 25 U/L
- BUN (plasma) ([3]; mouse, in vivo, po): 23 ± 2 **^,## mg/dL
- Insulin (fasting plasma) ([3]; ob/ob mice after 28 days oral treatment, control 2.2 ± 1.0): 0.9 ± 0.3 ng/mL
- HbA1c ([3]; ob/ob mice after 28 days oral treatment, control 7.9 ± 0.8): 6.5 ± 0.7 **^,## %
- Adiponectin (plasma) ([3]; ob/ob mice after 28 days oral treatment, control 8.2 ± 1.1): 9.4 ± 0.8 µg/mL
- TG (plasma) ([3]; ob/ob mice after 28 days oral treatment, control 83 ± 16): 76 ± 25 mg/dL
- T-CHO (plasma) ([3]; ob/ob mice after 28 days oral treatment, control 195 ± 16): 189 ± 42 mg/dL
- Blood glucose level by the end of treatment ([4]; [Zn(hmpt)2] 2.5–10 mg Zn/kg, [Zn(hmps)2] 1.0–5.0 mg Zn/kg): approximately 200 mg/dL
- Water intake on the final day ([4]; control 12.6 ± 1.6 g, p < 0.01 vs. control): 7.5 ± 2.5 g
- Body weight change during treatment ([4]; loss seen day 22 to 25, recovered after dose reduction): body weight loss
- Glycogen content in the liver ([5]; control 0.08 ± 0.04): 0.03 ± 0.01 mg/g liver
- TG content in the liver ([5]; control 437 ± 139): 309 ± 134 mg/g liver
- Se concentration, kidney ([6]; dry tissue, ob/ob mice after 28 days oral treatment, control 6.4 ± 0.2): 5.8 ± 0.5 µg/g
- Zn concentration, kidney ([6]; dry tissue, ob/ob mice after 28 days oral treatment, control 67 ± 3): 73 ± 4 µg/g
- Δ[Zn], bone ([6]; mouse, in vivo, po): 517 nmol/g
- Δ[Zn], kidney ([6]; mouse, in vivo, po): 86 nmol/g
- Δ[Zn], liver ([6]; mouse, in vivo, po): 453 nmol/g
- Δ[Zn], pancreas ([6]; mouse, in vivo, po): 302 nmol/g
- Δ[Zn], plasma ([6]; mouse, in vivo, po): 3 nmol/g
- Pancreatic islet numbers per section ([7]; among normal, control and treated mice): not significantly changed
- Glycogen and fat deposition area ratio in the liver ([7]; between control and treated mice): no significant differences
- Pancreatic islet area ratio and size ([7]; compared with normal mice): significantly increased

Structure (SMILES): O=[Se]([O-])[O-].[Na+].[Na+] [sodium selenite]
- Hepatic histology finding (male Wistar rats): necrotic areas in hepatic sections were observed
